Experiment [1] can be described thus: DPPH free radical scavenging assay. As to conditions: 517 nm; for DPPH (%): radical scavenging, concentration not given; for EC50: read-out: EC50 (DPPH radical scavenging). On the technique in general: Loss of DPPH colour is used to gauge radical scavenging.
Experiment [2] addresses T1, mushroom tyrosinase (Agaricus bisporus, UniProt C7FF04). The experiment in a line: Enzymatic assay for tyrosinase inhibition. It counts as biochemical. As to conditions: read-out: Inhibition% ± SEM.
In experiment [3] the target is T1, mushroom tyrosinase. Nature of the experiment: Determination of the inhibition type. It counts as biochemical. Conditions: Lineweaver-Burk.

Structures are written as SMILES. “Also recorded” adds a separate entry of the source. Some results are limits rather than exact numbers.

T1 sequence (C7FF04 2-392): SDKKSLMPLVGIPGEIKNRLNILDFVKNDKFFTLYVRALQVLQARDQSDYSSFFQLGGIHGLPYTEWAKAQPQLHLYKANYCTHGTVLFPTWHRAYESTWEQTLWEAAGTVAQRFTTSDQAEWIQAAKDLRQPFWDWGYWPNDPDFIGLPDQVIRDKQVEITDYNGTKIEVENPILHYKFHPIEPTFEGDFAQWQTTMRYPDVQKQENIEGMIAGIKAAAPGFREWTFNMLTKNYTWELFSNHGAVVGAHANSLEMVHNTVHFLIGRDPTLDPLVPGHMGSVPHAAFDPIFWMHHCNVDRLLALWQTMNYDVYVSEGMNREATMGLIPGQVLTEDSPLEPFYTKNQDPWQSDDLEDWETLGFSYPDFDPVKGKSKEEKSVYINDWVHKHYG

With `Cc1c(O)c(=O)ccn1-c1cccc(C(=O)NN=Cc2ccccc2[N+](=O)[O-])c1` [6a, 3-(3-hydroxy-2-methyl-4-oxopyridin-1(4H)-yl)-N′-(2-nitrobenzylidene)benzohydrazide], in experiment [1], the “DPPH (%)” value is 77.15% and the EC50 (as a rule, the midpoint of the concentration-response curve) turned out to be 32 ± 10 µM. The inhibition (as a rule, the share of the control response that was lost under treatment) at 50 µM at mushroom tyrosinase [2] was 46.1 ± 8.21%.
In the same order, the values of `Cc1c(O)c(=O)ccn1-c1cccc(C(=O)NN=Cc2ccc(F)cc2)c1` [6b, 3-(3-hydroxy-2-methyl-4-oxopyridin-1(4H)-yl)-N′-(4-fluorobenzylidene)benzohydrazide] are 71.42%, 12 µM and 43.1 ± 3.41%.
Consider `Cc1c(O)c(=O)ccn1-c1cccc(C(=O)NN=Cc2ccc(C#N)cc2)c1` [6c, 3-(3-hydroxy-2-methyl-4-oxopyridin-1(4H)-yl)-N′-(4-cyanobenzylidene)benzohydrazide], for which, in experiment [1], the “DPPH (%)” value worked out at 43.67% and the EC50 was 216 ± 80 µM. For the same compound, the inhibition at 50 µM on mushroom tyrosinase [2] was 30.8 ± 2.85%.
Consider `Cc1ccc(C=NNC(=O)c2cccc(-n3ccc(=O)c(O)c3C)c2)cc1` [6d, 3-(3-hydroxy-2-methyl-4-oxopyridin-1(4H)-yl)-N′-(4-methylbenzylidene)benzohydrazide], for which, in experiment [1], the “DPPH (%)” value amounted to 39.13% and the half-maximal effective concentration (EC50) was 369 ± 10 µM. The inhibition at 50 µM on mushroom tyrosinase [2] turned out to be 49 ± 7.51%.
For the compound `Cc1c(O)c(=O)ccn1-c1cccc(C(=O)NN=Cc2ccc(C(C)C)cc2)c1` [6e, 3-(3-hydroxy-2-methyl-4-oxopyridin-1(4H)-yl)-N′-(4-isopropylbenzylidene)benzohydrazide], in experiment [1], the “DPPH (%)” value is reported as 61.44% and the EC50 came out at 14 ± 10 µM. The inhibition at 50 µM on mushroom tyrosinase [2] came to 41.7 ± 4.07%.
Regarding `COc1cccc(C=NNC(=O)c2cccc(-n3ccc(=O)c(O)c3C)c2)c1[N+](=O)[O-]` [6f, 3-(3-hydroxy-2-methyl-4-oxopyridine-1(4H)-yl)-N′-(3-methoxy-2-nitrobenzylidene)benzohydrazide], in experiment [1], the “DPPH (%)” value turned out to be 43.67% and the concentration giving a half-maximal response (EC50) was determined as 168 ± 30 µM. The inhibition at 50 µM at mushroom tyrosinase [2] was 34.8 ± 3.83%.
In the same order, the values of `Cc1c(O)c(=O)ccn1-c1cccc(C(=O)NN=Cc2ccc(Cl)cc2Cl)c1` [6g, 3-(3-hydroxy-2-methyl-4-oxopyridin-1(4H)-yl)-N′-(2,4-dichlorobenzylidene)benzohydrazide] are 39.11%, 191 ± 70 µM and 28.1 ± 3.97%.
`Cc1c(O)c(=O)ccn1-c1cccc(C(=O)NN=Cc2cc([N+](=O)[O-])ccc2Cl)c1` [6h, 3-(3-hydroxy-2-methyl-4-oxopyridin-1(4H)-yl)-N′-(2-chloro-5-nitrobenzylidene)benzohydrazide]: in experiment [1], the “DPPH (%)” value is listed as 31.91% and the 50% effective concentration (EC50) was above 400 µM. In addition, on mushroom tyrosinase [2], the inhibition at 50 µM is 11.4 ± 2.59%.
Turning to `Cc1c(O)c(=O)ccn1-c1cccc(C(=O)NN=Cc2cc(Br)ccc2O)c1` [6i, 3-(3-hydroxy-2-methyl-4-oxopyridin-1(4H)-yl)-N′-(5-bromo-2-hydroxybenzylidene)benzohydrazide], on mushroom tyrosinase [3] (L-Dopa), the “Km value with increasing inhibitor concentration” value is on record as “increased” and the “Vmax with increasing inhibitor concentration” value is listed as “not affected”. In addition, the inhibition type result against mushroom tyrosinase [3] (inhibitor 0, 12.64, 25.29, 50.58 μM, L-Dopa 0.5-10.0 mM) is “competitive inhibitor; also recorded: competitive type of inhibition”. For the same compound, in experiment [1], the “DPPH (%)” value is 42.64% and the 50% effective concentration (EC50) was determined as 185 ± 130 µM. The inhibition at 50 µM on mushroom tyrosinase [2] turned out to be 49.6 ± 12.6%.
For the compound `Cc1c(O)c(=O)ccn1-c1cccc(C(=O)NN=Cc2ccc([N+](=O)[O-])s2)c1` [6j, 3-(3-hydroxy-2-methyl-4-oxopyridin-1(4H)-yl)-N'-((5-nitrothiophen-2-yl)methylene)benzohydrazide], in experiment [1], the “DPPH (%)” value turned out to be 42.74% and the concentration for a half-maximal effect (EC50) was found to be 383 ± 120 µM. In addition, the inhibition at 50 µM on mushroom tyrosinase [2] is 40.4 ± 5%.
As for `O=c1c(O)c(-c2ccc(O)c(O)c2)oc2cc(O)cc(O)c12` [Quercetin, reference compound], in experiment [1], the “DPPH (%)” value turned out to be 74.33% and the EC50 amounted to 8.9 µM.

The record behind these values is publication PMC10629491 (RSC Advances, 2023).
